{
  "source": "PubChem BioAssay (NCI)",
  "test_in_all_cases": "DTP human tumour cell line panel, 48 h",
  "key": {"RPMI-8226 leukemia": {"tested_on": "RPMI-8226 leukemia"}, "SF-295 CNS": {"tested_on": "SF-295 CNS"}, "U251 CNS": {"tested_on": "U251 CNS"}, "SW-620 colon": {"tested_on": "SW-620 colon"}, "UACC-257 melanoma": {"tested_on": "UACC-257 melanoma"}, "CAKI-1 renal": {"tested_on": "CAKI-1 renal"}, "DU-145 prostate": {"tested_on": "DU-145 prostate"}, "SN12C renal": {"tested_on": "SN12C renal"}, "NCI-H23 lung": {"tested_on": "NCI-H23 lung"}, "MDA-N": {"tested_on": "MDA-N"}, "MDA-MB-231 breast": {"tested_on": "MDA-MB-231 breast"}, "HCT-116 colon": {"tested_on": "HCT-116 colon"}, "HOP-62 NSCLC": {"tested_on": "HOP-62 NSCLC"}, "HL-60(TB) leukemia": {"tested_on": "HL-60(TB) leukemia"}, "HOP-92 NSCLC": {"tested_on": "HOP-92 NSCLC"}, "KM12 colon": {"tested_on": "KM12 colon"}, "SK-MEL-28 melanoma": {"tested_on": "SK-MEL-28 melanoma"}, "RXF 393 renal": {"tested_on": "RXF 393 renal"}, "EKVX NSCLC": {"tested_on": "EKVX NSCLC"}, "T-47D breast": {"tested_on": "T-47D breast"}, "HS 578T breast": {"tested_on": "HS 578T breast"}, "MCF7 breast": {"tested_on": "MCF7 breast"}, "MALME-3M melanoma": {"tested_on": "MALME-3M melanoma"}, "NCI-H460 lung": {"tested_on": "NCI-H460 lung"}, "A549 NSCLC": {"tested_on": "A549 NSCLC"}, "SNB-75 CNS": {"tested_on": "SNB-75 CNS"}, "K-562 leukemia": {"tested_on": "K-562 leukemia"}, "NCI-H226 lung": {"tested_on": "NCI-H226 lung"}, "OVCAR-5 ovarian": {"tested_on": "OVCAR-5 ovarian"}, "UACC-62 melanoma": {"tested_on": "UACC-62 melanoma"}, "NCI-H522 lung": {"tested_on": "NCI-H522 lung"}, "OVCAR-8 ovarian": {"tested_on": "OVCAR-8 ovarian"}, "MOLT-4 leukemia": {"tested_on": "MOLT-4 leukemia"}, "CCRF-CEM leukemia": {"tested_on": "CCRF-CEM leukemia"}, "OVCAR-3 ovarian": {"tested_on": "OVCAR-3 ovarian"}, "SR leukemia": {"tested_on": "SR leukemia"}, "MDA-MB-435": {"tested_on": "MDA-MB-435"}, "SNB-19 CNS": {"tested_on": "SNB-19 CNS"}, "SK-MEL-5 melanoma": {"tested_on": "SK-MEL-5 melanoma"}, "TK-10 renal": {"tested_on": "TK-10 renal"}, "SK-MEL-2 melanoma": {"tested_on": "SK-MEL-2 melanoma"}, "NCI/ADR-RES ovarian": {"tested_on": "NCI/ADR-RES ovarian"}, "IGROV1 ovarian": {"tested_on": "IGROV1 ovarian"}, "A498 renal": {"tested_on": "A498 renal"}, "HCT-15 colon": {"tested_on": "HCT-15 colon"}, "BT-549 breast": {"tested_on": "BT-549 breast"}, "LOX IMVI melanoma": {"tested_on": "LOX IMVI melanoma"}, "SK-OV-3 ovarian": {"tested_on": "SK-OV-3 ovarian"}, "ACHN renal": {"tested_on": "ACHN renal"}, "UO-31 renal": {"tested_on": "UO-31 renal"}, "HCC-2998 colon": {"tested_on": "HCC-2998 colon"}, "M14 melanoma": {"tested_on": "M14 melanoma"}, "OVCAR-4 ovarian": {"tested_on": "OVCAR-4 ovarian"}, "786-0 renal": {"tested_on": "786-0 renal"}, "COLO 205 colon": {"tested_on": "COLO 205 colon"}, "HT29 colon": {"tested_on": "HT29 colon"}, "SF-268 CNS": {"tested_on": "SF-268 CNS"}, "PC-3 prostate": {"tested_on": "PC-3 prostate"}},
  "note": "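Exposure lasted 48 hours, with cells grown in 96-well plates and compounds tested at five concentrations. TGI: concentration producing complete growth inhibition.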",
  "data": [
    {"smiles": "CCOC(=O)/C=C/C(Br)=C(Br)/C=C/C(=O)OCC", "values": [
      {"measurement": "TGI", "setting": "RPMI-8226 leukemia", "result": 15.6, "unit": "µM"},
      {"measurement": "TGI", "setting": "SF-295 CNS", "result": 28.8, "unit": "µM"},
      {"measurement": "TGI", "setting": "U251 CNS", "result": 27.9, "unit": "µM"},
      {"measurement": "TGI", "setting": "SW-620 colon", "result": 5.31, "unit": "µM"},
      {"measurement": "TGI", "setting": "UACC-257 melanoma", "result": 43.5, "unit": "µM"},
      {"measurement": "TGI", "setting": "CAKI-1 renal", "result": 13.9, "unit": "µM"},
      {"measurement": "TGI", "setting": "DU-145 prostate", "result": 29.1, "unit": "µM"},
      {"measurement": "TGI", "setting": "SN12C renal", "result": 25.9, "unit": "µM"},
      {"measurement": "TGI", "setting": "NCI-H23 lung", "result": 30, "unit": "µM"},
      {"measurement": "TGI", "setting": "MDA-N", "result": 27.3, "unit": "µM"},
      {"measurement": "TGI", "setting": "MDA-MB-231 breast", "result": 31.1, "unit": "µM"},
      {"measurement": "TGI", "setting": "HCT-116 colon", "result": 17, "unit": "µM"},
      {"measurement": "TGI", "setting": "HOP-62 NSCLC", "result": 36.7, "unit": "µM"},
      {"measurement": "TGI", "setting": "HL-60(TB) leukemia", "result": 26.1, "unit": "µM"},
      {"measurement": "TGI", "setting": "HOP-92 NSCLC", "result": 37.1, "unit": "µM"},
      {"measurement": "TGI", "setting": "KM12 colon", "result": 32.6, "unit": "µM"},
      {"measurement": "TGI", "setting": "SK-MEL-28 melanoma", "result": 33.4, "unit": "µM"},
      {"measurement": "TGI", "setting": "RXF 393 renal", "result": 24.9, "unit": "µM"},
      {"measurement": "TGI", "setting": "EKVX NSCLC", "result": 36.2, "unit": "µM"},
      {"measurement": "TGI", "setting": "T-47D breast", "result": "> 64.5", "unit": "µM"},
      {"measurement": "TGI", "setting": "HS 578T breast", "result": "> 76.2", "unit": "µM"},
      {"measurement": "TGI", "setting": "MCF7 breast", "result": 26.2, "unit": "µM"},
      {"measurement": "TGI", "setting": "MALME-3M melanoma", "result": 17.5, "unit": "µM"},
      {"measurement": "TGI", "setting": "NCI-H460 lung", "result": "> 100", "unit": "µM"},
      {"measurement": "TGI", "setting": "A549 NSCLC", "result": 56, "unit": "µM"},
      {"measurement": "TGI", "setting": "SNB-75 CNS", "result": 26, "unit": "µM"},
      {"measurement": "TGI", "setting": "K-562 leukemia", "result": 10.9, "unit": "µM"},
      {"measurement": "TGI", "setting": "NCI-H226 lung", "result": 56.1, "unit": "µM"},
      {"measurement": "TGI", "setting": "OVCAR-5 ovarian", "result": 34.9, "unit": "µM"},
      {"measurement": "TGI", "setting": "UACC-62 melanoma", "result": 30.9, "unit": "µM"},
      {"measurement": "TGI", "setting": "NCI-H522 lung", "result": 7.14, "unit": "µM"},
      {"measurement": "TGI", "setting": "OVCAR-8 ovarian", "result": 21.3, "unit": "µM"},
      {"measurement": "TGI", "setting": "MOLT-4 leukemia", "result": 5.93, "unit": "µM"},
      {"measurement": "TGI", "setting": "CCRF-CEM leukemia", "result": 2.84, "unit": "µM"},
      {"measurement": "TGI", "setting": "OVCAR-3 ovarian", "result": 24.9, "unit": "µM"},
      {"measurement": "TGI", "setting": "SR leukemia", "result": 34.4, "unit": "µM"},
      {"measurement": "TGI", "setting": "MDA-MB-435", "result": 18.1, "unit": "µM"},
      {"measurement": "TGI", "setting": "SNB-19 CNS", "result": 33.6, "unit": "µM"},
      {"measurement": "TGI", "setting": "SK-MEL-5 melanoma", "result": 27.7, "unit": "µM"},
      {"measurement": "TGI", "setting": "TK-10 renal", "result": 28.1, "unit": "µM"},
      {"measurement": "TGI", "setting": "SK-MEL-2 melanoma", "result": 49.3, "unit": "µM"},
      {"measurement": "TGI", "setting": "NCI/ADR-RES ovarian", "result": 64.8, "unit": "µM"},
      {"measurement": "TGI", "setting": "IGROV1 ovarian", "result": 30.1, "unit": "µM"},
      {"measurement": "TGI", "setting": "A498 renal", "result": 74.3, "unit": "µM"},
      {"measurement": "TGI", "setting": "HCT-15 colon", "result": 10.7, "unit": "µM"},
      {"measurement": "TGI", "setting": "BT-549 breast", "result": 12.4, "unit": "µM"},
      {"measurement": "TGI", "setting": "LOX IMVI melanoma", "result": 7.44, "unit": "µM"},
      {"measurement": "TGI", "setting": "SK-OV-3 ovarian", "result": 47.8, "unit": "µM"},
      {"measurement": "TGI", "setting": "ACHN renal", "result": 25.8, "unit": "µM"},
      {"measurement": "TGI", "setting": "UO-31 renal", "result": 23.8, "unit": "µM"},
      {"measurement": "TGI", "setting": "HCC-2998 colon", "result": 49, "unit": "µM"},
      {"measurement": "TGI", "setting": "M14 melanoma", "result": 30.3, "unit": "µM"},
      {"measurement": "TGI", "setting": "OVCAR-4 ovarian", "result": 34.8, "unit": "µM"},
      {"measurement": "TGI", "setting": "786-0 renal", "result": 8.61, "unit": "µM"},
      {"measurement": "TGI", "setting": "COLO 205 colon", "result": 30.8, "unit": "µM"},
      {"measurement": "TGI", "setting": "HT29 colon", "result": 29.1, "unit": "µM"},
      {"measurement": "TGI", "setting": "SF-268 CNS", "result": 40.4, "unit": "µM"},
      {"measurement": "TGI", "setting": "PC-3 prostate", "result": 28, "unit": "µM"}
    ]}
  ]
}
